Data from paper PMC8921064 (Archives of Toxicology, 2022).
Read-outs that look alike come from different tables or passages of the source.

How the values were obtained:
[1] = tested on: Salmonella typhimurium TA98; experiment: Reverse mutation assay (Ames test), TA98; details: for Increase in the number of revertants compared to the concurrent solvent control: TA98, presence of 5% S9-mix, 10–100 µg; for Mutagenicity (conclusion): TA98, positive if more than threefold over control
Procedure: Six concentrations of each compound were tested in triplicate in the absence and presence of 5% (v/v) S9-mix prepared from the livers of Aroclor 1254 treated Sprague–Dawley rats. The S9-mix contained 4 mM NADP, 5.8 mM glucose-6-phosphate, 0.1 M sodium phosphate pH 7.4, 8 mM MgCl2, 33 mM KCl and 5% S9 homogenate. Fresh bacterial cultures were prepared overnight to reach 10^9 cells/ml. The following solutions were pre-incubated in a rotating incubator at 70 rpm and 37 °C, and contained either 0.5 ml S9-mix (in case of S9 presence) or 0.5 ml 0.1 M potassium phosphate pH 7.4 (in case of S9 absence), 0.1 ml of a fresh bacterial culture (10^9 cells/ml) of TA98 or TA100, […] Top agar was melted and heated to 45 °C. After preincubation, the substrate solutions were added to 3 ml of the molten top agar and mixed by vortexing and the top agar mixture was poured onto a minimal glucose agar plate. After solidification of the top agar, the plates were incubated at 37 °C for 48 h. The number of revertant colonies per plate was automatically counted with the Instem Sorcerer Colony Counter (Staffordshire, UK). In the absence of S9-mix, 2-nitrofluorene (NF) and methylmethanesulfonate (MMS) were tested as positive controls for incubations with TA98 and TA100, respectively. In the presence of S9-mix, 2-aminoanthracene (2AA) was tested as a positive control in both TA98 and TA100. DMSO was tested as a solvent control in both tester strains.

[2] = tested on: human liver microsomes (HLM); experiment: Human liver microsomal incubation, metabolite formation quantified by UPLC; details: HLM
Procedure: (§1) The incubation mixtures were prepared and incubated in glass vials to avoid plastic binding of the substrates. The glass vials were capped to prevent substrate loss due to volatility. After preincubation of the incubation mixture at 37 °C for 1 min, the enzymatic reaction was initiated by adding microsomes to the incubation mixture which was subsequently incubated at 37 °C for 20 min. The reaction was terminated by adding 100 µl ice-cold acetonitrile followed by vortexing. After 5 min centrifugation at 5000 rpm (4000 × g), 4 °C, the supernatant was collected for ultraperformance liquid chromatography (UPLC) analysis. […] Therefore, a diisopropylether (DIPE) extraction of the metabolites was performed after the reaction was stopped by the addition of 20 µl 10% HClO4. To this end, the incubation mixture (total volume of 220 µl) was extracted three times with 1 ml DIPE. Each time, the upper organic layer was collected and the DIPE was subsequently evaporated from the combined organic fractions with a gentle stream of nitrogen. The residues were dissolved in 100 µl methanol and analyzed by UPLC.
(§2) The metabolites formed were analyzed and quantified using an Acquity UPLC system equipped with a photodiode array (PDA) detector (Waters, Milford, MA). The metabolites and their parent compound were separated on a reverse phase Acquity UPLC® BEH C18 column ([…], 1.7 µm, Waters, Milford, MA) and detected at wavelengths ranging from 190 to 400 nm. Eluent A was nano-pure water containing 0.1% trifluoroacetic acid (v/v), and eluent B was acetonitrile containing 0.1% trifluoroacetic acid (v/v). The gradient elution started from 90% A and 10% B applied from 0.0 min to 0.5 min, which was changed to 0% A and 100% B from 0.5 to 15.5 min and then kept at 0% A and 100% B from 15.5 min to 18.5 min, changed back to 90% A and 10% B from 18.5 to 18.6 min and then maintained at the starting conditions from 18.6 min until 22 min. The total run time was 22 min using a flow rate of 0.6 ml/min. The temperature of the column was set at 40 °C and that of the autosampler at 10 °C during the UPLC analysis. The injection volume was 3.5 µl. Metabolites were quantified using their peak area at the wavelength specified in Table 1, using calibration curves of available reference compounds. Metabolites were identified by comparing their retention time (RT) and UV spectrum to those of reference chemicals on UPLC. When reference chemicals were not available, metabolite identification by gas chromatography-triple quadrupole mass spectrometry (GC–MS/MS) was performed. The minor metabolites were identified by elution time and mass spectra both on UPLC and GC–MS/MS, and by comparison with available elution and spectral information from the literature.
(§3) The metabolite concentrations in the microsomal incubation mixtures as quantified by UPLC were used to calculate the rate of the enzymatic conversions in pmol/min/mg microsomal protein. The kinetic parameters KM and Vmax were obtained using a nonlinear regression curve fit applying the Michaelis Menten equation in GraphPad Prism 5 (San Diego, USA). To compare the catalytic efficiency of formation of the different metabolites the intrinsic clearance (Clint) was calculated as Vmax divided by KM.

S. typhimurium TA100 = details: cited from earlier work
[3] = tested on: Salmonella typhimurium TA100; experiment: Reverse mutation assay (Ames test), TA100; details: for Increase in the number of revertants compared to the concurrent solvent control: TA100, presence of 5% S9-mix, 10–100 µg; for Mutagenicity (conclusion): TA100, positive if more than twofold over control; for His + revertant colonies TA100 without S9-mix: mean ± SD of 3 plates
Procedure: Six concentrations of each compound were tested in triplicate in the absence and presence of 5% (v/v) S9-mix prepared from the livers of Aroclor 1254 treated Sprague–Dawley rats. The S9-mix contained 4 mM NADP, 5.8 mM glucose-6-phosphate, 0.1 M sodium phosphate pH 7.4, 8 mM MgCl2, 33 mM KCl and 5% S9 homogenate. Fresh bacterial cultures were prepared overnight to reach 10^9 cells/ml. The following solutions were pre-incubated in a rotating incubator at 70 rpm and 37 °C, and contained either 0.5 ml S9-mix (in case of S9 presence) or 0.5 ml 0.1 M potassium phosphate pH 7.4 (in case of S9 absence), 0.1 ml of a fresh bacterial culture (10^9 cells/ml) of TA98 or TA100, and 10–100 µg test compound. Top agar was melted and heated to 45 °C. After preincubation, the substrate solutions were added to 3 ml of the molten top agar and mixed by vortexing and the top agar mixture was poured onto a minimal glucose agar plate. After solidification of the top agar, the plates were incubated at 37 °C for 48 h. The number of revertant colonies per plate was automatically counted with the Instem Sorcerer Colony Counter (Staffordshire, UK). In the absence of S9-mix, 2-nitrofluorene (NF) and methylmethanesulfonate (MMS) were tested as positive controls for incubations with TA98 and TA100, respectively. In the presence of S9-mix, 2-aminoanthracene (2AA) was tested as a positive control in both TA98 and TA100. DMSO was tested as a solvent control in both tester strains.

mouse skin = tested on: mouse skin; design: method as in Buening et al. [1979]; LaVoie et al. [1981]; details: mouse skin painting; ref Buening et al. [1979]; LaVoie et al. [1981]; cited from earlier work
S. typhimurium TA98 = details: cited from earlier work
[4] = tested on: rat liver microsomes (RLM); experiment: Rat liver microsomal incubation, metabolite formation quantified by UPLC; details: RLM
Procedure: as §1, §2, §3

[5] = ref Katarzyna Rudnicka et al. [2013]

Cc1cccc2c1ccc1ccccc12 [1-Methylphenanthrene]
Increase in the number of revertants compared to the concurrent solvent control [1]: up to 13 fold
Mutagenicity (conclusion) [1]: showed mutagenicity
Vmax, formation of 1-(Hydroxymethyl) phennathrene RT = 5.55 min ([2]; substrate 1-Methylphenanthrene): 475.3 ± 13.2 pmol/min/mg microsomal protein
Vmax, formation of 1-Methylphenanthrol RT = 6.3 min ([2]; substrate 1-Methylphenanthrene): 14.7 ± 0.8 pmol/min/mg microsomal protein
Vmax, formation of 1-Methylphenanthrol RT = 6.80 min ([2]; substrate 1-Methylphenanthrene): 77.3 ± 3.9 pmol/min/mg microsomal protein
Vmax, formation of Dihydro-1-methylphenanthrene-diol RT = 2.32 min ([2]; substrate 1-Methylphenanthrene): 27.5 ± 4.6 pmol/min/mg microsomal protein
Vmax, formation of Dihydro-1-methylphenanthrene-diol RT = 4.35 min ([2]; substrate 1-Methylphenanthrene): 20.6 ± 0.5 pmol/min/mg microsomal protein
Increase in revertants (S. typhimurium TA100; [5]): 4.1 fold
Increase in revertants (S. typhimurium TA100; ref LaVoie et al. [1983]): 6.0 fold
Increase in the number of revertants compared to the concurrent solvent control [3]: ≤ 6.8 fold
Mutagenicity (conclusion) [3]: showed mutagenicity
Tumor-initiating activity (mouse skin): neither phenanthrene nor its monomethylated analogs
Increase in revertants (S. typhimurium TA98; [5]): 8.4 fold
Increase in revertants (S. typhimurium TA98; ref LaVoie et al. [1983]): 3.2 fold
Vmax, formation of 1-(Hydroxymethyl) phennathrene RT = 5.55 min ([4]; substrate 1-Methylphenanthrene): 1926 ± 40.3 pmol/min/mg microsomal protein
Vmax, formation of 1-Methylphenanthrol RT = 6.80 min ([4]; substrate 1-Methylphenanthrene): 33.1 ± 2.1 pmol/min/mg microsomal protein
Vmax, formation of 1-Methylphenanthrol RT = 6.92 min ([4]; substrate 1-Methylphenanthrene): 24.0 ± 1.6 pmol/min/mg microsomal protein
Vmax, formation of 1-Methylphenanthrol RT = 7.00 min ([4]; substrate 1-Methylphenanthrene): 17.3 ± 1.2 pmol/min/mg microsomal protein
Vmax, formation of 1-Methylphenanthrol RT = 7.29 min ([4]; substrate 1-Methylphenanthrene): 9.0 ± 0.8 pmol/min/mg microsomal protein
Vmax, formation of Dihydro-1-methylphenanthrene-diol RT = 3.43 min ([4]; substrate 1-Methylphenanthrene): 4.2 ± 0.4 pmol/min/mg microsomal protein
Vmax, formation of Dihydro-1-methylphenanthrene-diol RT = 3.96 min ([4]; substrate 1-Methylphenanthrene): 5.2 ± 0.3 pmol/min/mg microsomal protein
Vmax, formation of Dihydro-1-methylphenanthrene-diol RT = 4.35 min ([4]; substrate 1-Methylphenanthrene): 16.1 ± 1.3 pmol/min/mg microsomal protein
Vmax, formation of Dihydro-1-methylphenanthrene-diol RT = 4.76 min ([4]; substrate 1-Methylphenanthrene): 14.0 ± 0.6 pmol/min/mg microsomal protein

Cc1cc2ccccc2c2ccccc12 [9-Methylphenanthrene]
Increase in the number of revertants compared to the concurrent solvent control [1]: 2.5 fold
Increase in the number of revertants relative to the historical control data ([1]; TA98, presence of S9-mix): 3.2 fold
Mutagenicity (conclusion) [1]: indicative of mutagenicity
Vmax, formation of 1,2-Dihydro-9-methylphenanthrene-diol RT = 4.27 min ([2]; substrate 9-Methylphenanthrene): 15.6 ± 2.4 pmol/min/mg microsomal protein
Vmax, formation of 3,4-Dihydro-9-methylphenanthrene-diol RT = 2.98 min ([2]; substrate 9-Methylphenanthrene): 26.1 ± 3.0 pmol/min/mg microsomal protein
Vmax, formation of 9-(Hydroxymethyl)-phenanthrene RT = 5.6 min ([2]; substrate 9-Methylphenanthrene): 415.9 ± 43.9 pmol/min/mg microsomal protein
Vmax, formation of 9-Methylphenanthrol RT = 6.28 min ([2]; substrate 9-Methylphenanthrene): 27.8 ± 6.7 pmol/min/mg microsomal protein
Vmax, formation of 9-Methylphenanthrol RT = 6.73 min ([2]; substrate 9-Methylphenanthrene): 44.9 ± 19.4 pmol/min/mg microsomal protein
Increase in revertants (S. typhimurium TA100; ref LaVoie et al. [1983]): 3.0 fold
His + revertant colonies TA100 without S9-mix ([3]; 2 µg/plate): 121±7
His + revertant colonies TA100 without S9-mix ([3]; 4 µg/plate): 109±3
His + revertant colonies TA100 without S9-mix ([3]; 10 µg/plate): 105±11
His + revertant colonies TA100 without S9-mix ([3]; 20 µg/plate): 97±20
His + revertant colonies TA100 without S9-mix ([3]; 40 µg/plate): 59±40
Cytotoxicity at the test doses ([3]; TA100, absence of S9 mix): showed cytotoxicity
Increase in the number of revertants compared to the concurrent solvent control [3]: 1.9 fold
Increase in the number of revertants relative to the historical control data ([3]; TA100, presence of S9-mix): 2.0 fold
Mutagenicity (conclusion) [3]: indicative of mutagenicity
Tumor-initiating activity (mouse skin): neither phenanthrene nor its monomethylated analogs
Increase in revertants (S. typhimurium TA98; ref LaVoie et al. [1983]): 1.3 fold
Vmax, formation of 9-(Hydroxymethyl)-phenanthrene RT = 5.6 min ([4]; substrate 9-Methylphenanthrene): 1543 ± 226.6 pmol/min/mg microsomal protein
Vmax, formation of 9-Methylphenanthrol RT = 6.73 min ([4]; substrate 9-Methylphenanthrene): 27.2 ± 5.1 pmol/min/mg microsomal protein
Vmax, formation of 9-Methylphenanthrol RT = 6.87 min ([4]; substrate 9-Methylphenanthrene): 124.2 ± 29.2 pmol/min/mg microsomal protein
Vmax, formation of 9-Methylphenanthrol RT = 7.2 min ([4]; substrate 9-Methylphenanthrene): 41.4 ± 23.4 pmol/min/mg microsomal protein
Vmax, formation of 9-Methylphenanthrol RT = 7.25 min ([4]; substrate 9-Methylphenanthrene): 10.2 ± 1.9 pmol/min/mg microsomal protein
